Measured values reported in US9676715B2, “Bis-indolic derivatives, a process for preparing the same and their uses as a drug” (UNIVERSITE JOSEPH FOURIER, priority 2011, dated 2017).
In brackets after ≈: the same amount, converted by molar mass. Read-outs that look alike come from different tables or passages of the source.

Assays:
[1] = system: S. aureus ATCC 106414 (VISA); assay: MIC, microdilution method (9.1); assay type: cell-based, Staphylococcus aureus; conditions: Staphylococcus aureus, read after 18 h, read-out: MIC
Summary of the method: (§1)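 CLSI broth microdilution in Mueller Hinton broth, final inoculum 5×10^5 CFU/ml, with two-fold compound dilutions (0.50-128 mg/L final). Incubation at 37° C in ambient air, or 5% CO2 with 10% sheep blood for fastidious species.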

S. aureus ATCC 25923 = assay: MIC, microdilution method (9.1); assay type: cell-based, Staphylococcus aureus; conditions: Staphylococcus aureus, ATCC25923, read after 18 h, read-out: MIC
Summary of the method: as §1

S. aureus ATCC 29213 = assay: MIC, microdilution method (9.1); assay type: cell-based, Staphylococcus aureus; conditions: Staphylococcus aureus, ATCC29213, read after 18 h, read-out: MIC
Summary of the method: as §1

[2] = system: S. aureus ATCC 33592 (MRSA); assay: MIC, microdilution method (9.1); assay type: cell-based, Staphylococcus aureus; conditions: Staphylococcus aureus, read after 18 h, read-out: MIC
Summary of the method: as §1

S. aureus ATCC 6538 = assay: MIC, microdilution method (9.1); assay type: cell-based, Staphylococcus aureus; conditions: Staphylococcus aureus, ATCC6538, read after 18 h, read-out: MIC
Summary of the method: as §1

S. aureus ATCC 9144 = assay: MIC, microdilution method (9.1); assay type: cell-based, Staphylococcus aureus; conditions: Staphylococcus aureus, ATCC9144, read after 18 h, read-out: MIC
Summary of the method: as §1

S. aureus CIP 103428 = assay: MIC, microdilution method (9.1); assay type: cell-based, Staphylococcus aureus; conditions: Staphylococcus aureus, CIP103428, read after 18 h, read-out: MIC
Summary of the method: as §1

[3] = system: S. aureus CIP 65.25 (MRSA); assay: MIC, microdilution method (9.1); assay type: cell-based, Staphylococcus aureus; conditions: Staphylococcus aureus, read after 18 h, read-out: MIC
Summary of the method: as §1

S. aureus CIP 65.6 = assay: MIC, microdilution method (9.1); assay type: cell-based, Staphylococcus aureus; conditions: Staphylococcus aureus, CIP65, read after 18 h, read-out: MIC
Summary of the method: as §1

S. aureus SA-1199B = assay: MIC, microdilution method (9.1); assay type: cell-based, Staphylococcus aureus; conditions: Staphylococcus aureus, SA1199B, 18 h
Summary of the method: as §1

[4] = system: S. epidermidis ATCC 12228; assay: MIC, microdilution method (9.1); assay type: cell-based, Staphylococcus epidermidis; conditions: Staphylococcus epidermidis, ATCC12228, read after 18 h, read-out: MIC
Summary of the method: as §1

[5] = system: S. epidermidis CIP 103627; assay: MIC, microdilution method (9.1); assay type: cell-based, Staphylococcus epidermidis; conditions: Staphylococcus epidermidis, CIP103627, read after 18 h, read-out: MIC
Summary of the method: as §1

S. epidermidis CIP 81.55 = assay: MIC, microdilution method (9.1); assay type: cell-based, Staphylococcus epidermidis; conditions: Staphylococcus epidermidis, CIP81, read after 18 h, read-out: MIC
Summary of the method: as §1

S. pneumoniae ATCC 6303 = assay: MIC, microdilution method (9.1); assay type: cell-based, Streptococcus pneumoniae; conditions: Streptococcus pneumoniae, ATCC6303, 10% sheep blood, 5% CO2, 18 h, read-out: MIC
Summary of the method: as §1

[6] = system: S. agalactiae (group B) ATCC 12400; assay: MIC, microdilution method (9.1); assay type: cell-based, Streptococcus agalactiae; conditions: Streptococcus agalactiae, ATCC12400, 18 h, read-out: MIC
Summary of the method: as §1

[7] = system: S. pyogenes (group A) CIP 104226; assay: MIC, microdilution method (9.1); assay type: cell-based, Streptococcus pyogenes; conditions: Streptococcus pyogenes, CIP104226, 18 h, read-out: MIC
Summary of the method: as §1

S. mitis CIP 103335 = assay: MIC, microdilution method (9.1); assay type: cell-based, Streptococcus mitis; conditions: Streptococcus mitis, CIP103335, 18 h, read-out: MIC
Summary of the method: as §1

E. faecium CIP 54.32 = assay: MIC, microdilution method (9.1); assay type: cell-based, Enterococcus faecium; conditions: Enterococcus faecium, CIP54, 18 h, read-out: MIC
Summary of the method: as §1

E. faecalis ATCC 29212 = assay: MIC, microdilution method (9.1); assay type: cell-based, Enterococcus faecalis; conditions: Enterococcus faecalis, ATCC29212, 18 h, read-out: MIC
Summary of the method: as §1

[8] = system: Acinetobacter baumanii ATCC 19606; assay: MIC, microdilution method (9.1); assay type: cell-based; conditions: Acinetobacter baumannii, ATCC19606, 18 h, read-out: MIC
Summary of the method: as §1

[9] = system: Bacillus subtilis CIP 5262; assay: MIC, microdilution method (9.1); assay type: cell-based; conditions: CIP5262, 18 h, read-out: MIC
Summary of the method: as §1

[10] = system: Enterobacter cloacae ATCC13047; assay: MIC, microdilution method (9.1); assay type: cell-based; conditions: 18 h
Summary of the method: as §1

[11] = system: Escherichia coli ATCC 25922; assay: MIC, microdilution method (9.1); assay type: cell-based; conditions: ATCC25922, 18 h
Summary of the method: as §1

[12] = system: Haemophilus influenzae ATCC 49766; assay: MIC, microdilution method (9.1); assay type: cell-based
Summary of the method: as §1

[13] = system: Klebsiella pneumoniae API ATCC 35657; assay: MIC, microdilution method (9.1); assay type: cell-based; conditions: ATCC35657, 18 h, read-out: MIC
Summary of the method: as §1

[14] = system: Listeria innocua CIP 80.11; assay: MIC, microdilution method (9.1); assay type: cell-based; conditions: CIP80, 18 h, read-out: MIC
Summary of the method: as §1

[15] = system: Pseudomonas aeruginosa CIP 5933; assay: MIC, microdilution method (9.1); assay type: cell-based; conditions: CIP5933, 18 h, read-out: MIC
Summary of the method: as §1

S. pneumoniae ATCC 49619 = assay: MIC, microdilution method (9.1); assay type: cell-based; conditions: Streptococcus pneumoniae, ATCC49619, 10% sheep blood, 5% CO2, 18 h
Summary of the method: as §1

[16] = system: Serratia marcescens CIP 103551; assay: MIC, microdilution method (9.1); assay type: cell-based; conditions: CIP103551, 18 h
Summary of the method: as §1

[17] = system: 29 bacterial strains belonging to 17 different species; assay: MIC determination, overall statements on the bacterial panel; assay type: cell-based; conditions: summary of MIC results
Method: The microdilution method recommended by the Clinical and Laboratory Standard Institute [M07-A8, Vol. 29, No. 2] was used. The activity of indolic compounds was tested against 29 bacterial strains belonging to 17 different species and 12 different genera (Staphylococcus, Streptococcus, Enterococcus, Listeria, Bacillus, Haemophilus, Escherichia, Klebsiella, Enterobacter, Serratia, Pseudomonas, and Acinetobacter). Bacterial inocula were prepared in Mueller Hinton broth (MH2, bioMérieux, Marcy L'Etoile, France), supplemented with 10% sheep blood for fastidious species (i.e., Streptococcus pneumoniae and Haemophilus influenzae). They were dispensed in 96 well microtiter plates (5×10^5 CFU/ml of final inoculum). Indolic compounds were added to the wells as to obtain two-fold serial concentrations (0.50-128 mg/L of final concentrations). Plates were incubated at 37° C. in ambient air, or at 37° C. in 5% CO2 enriched atmosphere for fastidious species. […] Drug-free cultures served as growth controls. Cultures receiving gentamicin, ciprofloxacin or cefotaxime served as positive controls.

[18] = system: HCT116 (human colon tumor); assay: In vitro cytotoxicity; assay type: cell-based; conditions: HCT-116, HCT116, from 100 μM to 0.005 μM in DMSO, duplicate
[19] = ATCC49766, Haemophilus influenzae ATCC 49766, 10% sheep blood, 5% CO2, 18 h, read-out: MIC

Row | Structure (SMILES) | MIC [1] [µg/mL] | MIC (S. aureus ATCC 25923) [µg/mL] | MIC (S. aureus ATCC 29213) [µg/mL] | MIC [2] [µg/mL] | MIC (S. aureus ATCC 6538) [µg/mL] | MIC (S. aureus ATCC 9144) [µg/mL] | MIC (S. aureus CIP 103428) [µg/mL] | MIC [3] [µg/mL] | MIC (S. aureus CIP 65.6) [µg/mL] | MIC (S. aureus SA-1199B) [µg/mL] | MIC [4] [µg/mL] | MIC [5] [µg/mL] | MIC (S. epidermidis CIP 81.55) [µg/mL] | MIC (S. pneumoniae ATCC 6303) [µg/mL] | MIC [6] [µg/mL] | MIC [7] [µg/mL] | MIC (S. mitis CIP 103335) [µg/mL] | MIC (E. faecium CIP 54.32) [µg/mL] | MIC (E. faecalis ATCC 29212) [µg/mL] | MIC [8] [µg/mL] | further results
1 | CC(C)(C)OC(=O)NCC(NC(=O)c1ccccc1)c1c[nH]c2ccc(Br)cc12 (centres unmarked) [Compound 8, t-Butyl (2-benzamido-2-(5-bromo-1H-indol-3-yl)ethyl) carbamate] | > 128 | > 128 | > 128 | > 128 | > 128 | > 128 | > 128 | > 128 | > 128 | > 128 | > 128 | > 128 | > 128 | > 128 | > 128 | > 128 | > 128 | > 128 | > 128 | > 128 | MIC [9]: > 128 µg/mL; MIC [10]: > 128 µg/mL; MIC [11]: > 128 µg/mL; MIC [12, 19]: > 128 µg/mL; MIC [13]: > 128 µg/mL; MIC [14]: > 128 µg/mL; MIC [15]: > 128 µg/mL; MIC (S. pneumoniae ATCC 49619): > 128 µg/mL; MIC [16]: > 128 µg/mL; intrinsic antibacterial activity (in words) [17]: lack of intrinsic antibacterial activity; IC50 ([18]; first value): 6.14 µM; IC50 ([18]; second value): 7.33 µM
2 | CC(C)(C)OC(=O)NCC(NC(=O)C(F)(F)F)c1c[nH]c2ccc(Br)cc12 (centres unmarked) [Compound 9, tert-Butyl (2-(5-bromo-1H-indol-3-yl)-2-(2,2,2-trifluoroacetamido)ethyl)carbamate] | 128 (≈ 284 µM) | > 128 | 64 (≈ 142 µM) | 128 (≈ 284 µM) | 128 (≈ 284 µM) | > 128 | 128 (≈ 284 µM) | 128 (≈ 284 µM) | 128 (≈ 284 µM) | 128 (≈ 284 µM) | > 128 | > 128 | > 128 | > 128 | > 128 | > 128 | > 128 | > 128 | > 128 | > 128 | MIC [9]: 128 µg/mL (≈ 284 µM); MIC [10]: > 128 µg/mL; MIC [11]: > 128 µg/mL; MIC ([12]; Haemophilus influenzae, ATCC49766, 18 h): > 128 µg/mL; MIC [13]: > 128 µg/mL; MIC [14]: > 128 µg/mL; MIC [15]: > 128 µg/mL; MIC (S. pneumoniae ATCC 49619): > 128 µg/mL; MIC [16]: > 128 µg/mL; intrinsic antibacterial activity (in words) [17]: lack of intrinsic antibacterial activity
3 | CC(C)(C)OC(=O)NCC(NC(=O)c1cccnc1)c1c[nH]c2ccc(Br)cc12 (centres unmarked) [Compound 10, tert-Butyl (2-(5-bromo-1H-indol-3-yl)-2-(nicotinamido)ethyl) carbamate] | > 128 | > 128 | 128 (≈ 279 µM) | > 128 | 64 (≈ 139 µM) | > 128 | 64 (≈ 139 µM) | > 128 | > 128 | 64 (≈ 139 µM) | > 128 | > 128 | > 128 | 128 (≈ 279 µM) | 128 (≈ 279 µM) | 128 (≈ 279 µM) | > 128 | > 128 | > 128 | > 128 | MIC [9]: 128 µg/mL (≈ 279 µM); MIC [10]: > 128 µg/mL; MIC [11]: > 128 µg/mL; MIC [12, 19]: > 128 µg/mL; MIC [13]: > 128 µg/mL; MIC [14]: > 128 µg/mL; MIC [15]: > 128 µg/mL; MIC (S. pneumoniae ATCC 49619): 128 µg/mL (≈ 279 µM); MIC [16]: > 128 µg/mL; intrinsic antibacterial activity (in words) [17]: lack of intrinsic antibacterial activity
